Patent US12459930B2, “Compounds for the inhibition of unregulated cell growth” (GODAVARI BIOREFINERIES LIMITED, priority 2018, dated 2025)

What was measured:
[1] = tested on: PC3 spheres (cancer stem cells); test: In vitro sphere-forming assay (cancer stem cells), PC3 in Prostosphere media; conditions: for 3D sphere count of PC3 in Prostosphere media: 2000 cells/well, n = 6 ± S.D; for viability at 0.0025 µM: read-out: % Viability of spheres (PC3), 0.0025 uM; for viability at 0.0025 µM / viability at 0.025 µM / viability at 0.25 µM / viability at 2.5 µM / viability at 25 µM: GCD = 100% viability; for viability at 0.025 µM: read-out: % Viability of spheres (PC3), 0.025 uM; for viability at 0.25 µM: read-out: % Viability of spheres (PC3), 0.25 uM; for viability at 2.5 µM: read-out: % Viability of spheres (PC3), 2.5 uM; for viability at 25 µM: read-out: % Viability of spheres (PC3), 25 uM
[2] = tested on: DU145 prostate cancer cell line; test: In vitro antiproliferative assay (MTT assay), DU145; assay type: cell-based; conditions: Homo sapiens, DU-145, 48 h, 48 hrs drug incubation, read-out: IC50 in micromolar, DU145 (MTT assay)
Method: (§1) MTT assay is a simple and sensitive assay where, metabolic reducing activity of the cells is measured. The increase of this activity in time is taken as a parameter of cell growth. If treatment with a drug impairs this increase, the action is a consequence of growth inhibition, cell killing or both. […] All cell lines were cultured in a 37° C. incubator with a 5% CO2 environment. Compounds were dissolved in DMSO with a concentration of 0.1M (stock solution). Cells were seeded into 96-well plates at suitable plating efficiency.
(§2) Following plating efficiencies were standardized for MTT assay:
(§3) In the MTT procedure, the cells were plated in 96 well plates as per predetermined plating efficiency (Table1). The plates were then incubated for 24 hrs in 5% CO2 atmosphere at 37° C. Appropriate concentrations of the drugs were then added to the plate and further incubation was carried out for 48 hrs (in 5% CO2 atmosphere at 37° C.). The assay plate was then centrifuged twice at 3000 rpm for 3 mins and supernatant was then discarded. 100 ul of MTT solution (0.5 mg/ml) was then added to each well of the plate and it was further incubated for 4 hrs (in 5% CO2 atmosphere at 37° C.) Following 4 hr incubation, the plate was then centrifuged twice, and supernatant was aspirated off very carefully. 200 ul of DMSO was then added to each well to solubilize. MTT crystals and mixed well by shaking the plate. XY graph of log percent viability was then plotted against log drug concentration.

[3] = tested on: MDAMB231 breast cancer cell line; test: In vitro antiproliferative assay (MTT assay), MDAMB231; assay type: cell-based; conditions: Homo sapiens, MDA-MB-231, 48 h, 48 hrs drug incubation, read-out: IC50 in micromolar, MDAMB231 (MTT assay)
Method: as §1, §2, §3

[4] = tested on: PC3 prostate cancer cell line; test: Soft agar colony-formation assay, PC3; assay type: cell-based; conditions: 168 h, 1 week, Alamar Blue, read-out: IC50 in micromolar, PC3 (Soft Agar Assay)
Method: (§4) The Soft Agar Colony-formation Assay is an anchorage-independent growth assay in soft agar, which is one of the most stringent assays for detecting malignant transformation of cells. For this assay, malignant cells are cultured with appropriate controls in soft agar medium for 1-2 weeks. Following this incubation period, formed colonies can either be analyzed morphologically using cell stain and quantifying the number of colonies formed.
(§5) Briefly, for Soft Agar Assay a mixture of 50 ul of 2× medium (taken appropriately as per cell line) and 50 ul of 1.2% Bacto Agar were plated on to each well of 96 well micro titer assay plate. 10 ul of cells (of specific plating efficiency pre standardized for respective cell line) were mixed with 20 ul of 2× medium and 30 ul of 0.8% of Bacto Agar and 1.6 ul of drug (of appropriate concentration) in a vial and transferred to the solidified pre layers of the assay plates. The cells were then allowed to grow and form colonies at 37° C. and 5% C02 for 1 week. An intermittent feeding with 50 ul of appropriate 2× medium was performed after 3 days of experimental set up. 16 ul of Alamar Blue (1.5 mg/ml) was then added to all the wells to quantify the developed colonies. The plates were incubated for 24 hrs at 37° C. Absorbance was then measured at 630 nm. XY graph of log Percent viability was then plotted against log drug concentration.
(§6) Following plating efficiencies were standardized for Soft Agar Assay: […]

[5] = tested on: MDAMB231 spheres (cancer stem cells); test: In vitro sphere-forming assay (cancer stem cells), MDAMB231 in Mammosphere media; conditions: for 3D sphere count of MDAMB231 in Mammosphere media: 2000 cells/well, n = 6 ± S.D; for viability at 0.0025 µM / viability at 0.025 µM / viability at 0.25 µM / viability at 2.5 µM / viability at 25 µM: Homo sapiens, MDA-MB-231, read-out: % Viability of spheres (MDAMB231)
Method: In Vitro Sphere-forming Assay: Sphere assay measures the ability of cancer stem cells (CSCs) to form spheres in specially designed serum-free medium.
Mammosphere Media Preparation (For 100 mL): 1 g methyl cellulose autoclaved with magnetic stirrer, 100 ml plain media (MEBM) was added and dissolved under magnetic stirring. After complete dissolution FGF—80 μL, EGF—40 μL, Penstrep—1 mL, Heparin—400 μL was added.
Procedure—The cells were trypsinised and made into single-cell suspension by passing through cell strainers (100 μl and 40 μl, respectively), The cells were diluted at a concentration of 2000 cells/100 μL and suspended in either Mammosphere (for breast cell lines) or Prostosphere (for prostate cell lines). 100 μL of this suspension was added into each well of 96-well suspension plates and incubated at 37 C, 50 CO2 for 24 hrs. Appropriate concentrations of the drugs (2 L) were added into respective wells with 100 μL of stem cell culture medium. Plates were incubated at 37° C., 50% CO2 for 72 hrs. After incubation, 2.5 μL of the respective drug concentration and 50 μL of stem cell culture medium were added into each well and the plates were further incubated at 37° C., 500 CO2 for 72 hrs. 3 μL of the respective drug concentration was added with 50 μL of stem cell culture medium again after incubation and plates were reincubated for 72 hrs at 37° C., 500 CO2. Number of primary spheres formed for each concentration were counted. The spheres were converted to 0 viability of spheres compared to untreated (Growth Control with DMSO, GCD).

[6] = tested on: PC3 prostate cancer cell line; test: In vitro antiproliferative assay (MTT assay), PC3; assay type: cell-based; conditions: 48 h, 48 hrs drug incubation, read-out: IC50 in micromolar, PC3 (MTT assay)
Method: as §1, §2, §3

[7] = tested on: MDAMB231 breast cancer cell line; test: Soft agar colony-formation assay, MDAMB231; assay type: cell-based; conditions: Homo sapiens, MDA-MB-231, 168 h, 1 week, Alamar Blue, read-out: IC50 in micromolar, MDAMB231 (Soft Agar Assay)
Method: as §4, §5, §6

Compound | 3D sphere count of PC3 in Prostosphere media ([1]; 0.0025 uM) | 3D sphere count of PC3 in Prostosphere media ([1]; 0.025 uM) | 3D sphere count of PC3 in Prostosphere media ([1]; 0.25 uM) | 3D sphere count of PC3 in Prostosphere media ([1]; 2.5 uM) | 3D sphere count of PC3 in Prostosphere media ([1]; 25 uM) | viability at 0.0025 µM [1] [%] | viability at 0.025 µM [1] [%] | viability at 0.25 µM [1] [%] | viability at 2.5 µM [1] [%] | viability at 25 µM [1] [%] | IC50 [2] [µM] | IC50 [3] [µM] | IC50 [4] [µM] | 3D sphere count of MDAMB231 in Mammosphere media ([5]; 0.0025 uM) | 3D sphere count of MDAMB231 in Mammosphere media ([5]; 0.025 uM) | 3D sphere count of MDAMB231 in Mammosphere media ([5]; 0.25 uM) | 3D sphere count of MDAMB231 in Mammosphere media ([5]; 2.5 uM) | 3D sphere count of MDAMB231 in Mammosphere media ([5]; 25 uM) | viability at 0.0025 µM [5] [%] | viability at 0.025 µM [5] [%] | also measured
c1ccc2c(-c3ccc4c(c3)OCO4)ccc(OCCCCN3CCOCC3)c2c1 [Formula VIII, 4-(4-(1-(benzo[d][1,3]dioxol-5-yl)naphthalen-4-yloxy)butyl)morpholine] | 57(±2) | 49(±3) | 41(±2) | 36(±2) | 28(±3) | 69 | 59 | 50 | 44 | 34 | 0.723 | 1.15 | 2.07 | 54(±3) | 49(±4) | 39(±2) | 28(±3) | 19(±1) | 76 | 69 | viability at 0.25 µM [5]: 55 ± 2%; viability at 2.5 µM [5]: 39%; viability at 25 µM [5]: 26%; IC50 [6]: 1.77 µM; IC50 [7]: 1.73 µM
c1ccc2c(-c3ccc4c(c3)OCO4)ccc(OCCN3CCOCC3)c2c1 [Formula X, 4-(2-(1-(benzo[d][1,3]dioxol-5-yl)naphthalen-4-yloxy)ethyl)morpholine] | 74(±4) | 61(±3) | 53(±3) | 42(±4) | 28(±3) | 87 | 72 | 62 | 49 | 33 | 5.96 | 5.36 | 10.3 | 57(±5) | 42(±4) | 34(±3) | 21(±3) | 7(±3) | 69 | 51 | viability at 0.25 µM [5]: 41%; viability at 2.5 µM [5]: 25%; viability at 25 µM [5]: 8%; IC50 [6]: 4 µM; IC50 [7]: 4.18 µM
O=C1OCc2c1c(-c1ccc3c(c1)OCO3)c1cc3c(cc1c2OCCN1CCOCC1)OCO3 [Formula XI, 4-(2-morpholinoethoxy)-9-(benzo[d][1,3]dioxol-5-yl)-6,7-methylenedioxynaphtho[2,3-c]furan-1(3H)-one] | 51(±3) | 43(±3) | 32(±4) | 21(±3) | 0(±0) | 62 | 52 | 39 | 25 | 0 | 8.18 | 3.2 | 5.12 | 51(±3) | 41(±3) | 31(±3) | 20(±3) | 0(±0) | 64 | 52 | viability at 0.25 µM [5]: 39%; viability at 2.5 µM [5]: 25%; viability at 25 µM [5]: 0%; IC50 [6]: 12.6 µM; IC50 [7]: 2.7 µM
COc1cccc(-c2ccc(OCCN3CCOCC3)c3ccccc23)c1 [Formula XII, 4-(2-(1-(3-methoxyphenyl)naphthalen-4-yloxy)ethyl)morpholine] | 50(±3) | 42(±3) | 36(±3) | 28(±3) | 9(±3) | 61 | 51 | 44 | 34 | 11 | 2.59 | 2.7 | 4.07 | 47(±4) | 41(±3) | 34(±3) | 30(±3) | 9(±3) | 59 | 52 | viability at 0.25 µM [5]: 43%; viability at 2.5 µM [5]: 38%; viability at 25 µM [5]: 11%; IC50 [6]: 3.98 µM; IC50 [7]: 3.33 µM
